These results are taken from patent publication US20250195530A1, “POLQ INHIBITORS” (ASTRAZENECA AB, priority 2022, published 2025).

Where two headings read alike, the source gives them in different places.

One assay has as its system DLD-1 cells. The experiment in a line: Inhibition of proliferation, DLD-1 BRCA2 wt control (Cell Titre Glo 3D). It counts as cell-based. The conditions noted are these: Homo sapiens. The method, boiled down: (§1)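 Read-out: CellTiter-Glo 3D luminescence, day 7 for wt DLD-1, day 12 for BRCA2−/−, about 8-9 population doublings each. Seeding 1,500 or 3,000 cells/mL respectively. Dose range 10 μM–0.51 nM, 3-fold, 10 points, with re-dosing on day 6. IC50 from curve fit.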

The next assay deals with DLD-1 BRCA2−/− cells. The experiment in a line: Homologous recombination synthetic lethal inhibition of proliferation, DLD-1 BRCA2-/- (Cell Titre Glo 3D). It counts as cell-based. The conditions noted are these: Homo sapiens. In short, it runs like this:
as §1

The mark [1] stands for this setting: DLD-1, DLD1 BRCA2 wt, mean, read-out: POLQ PD Prolif Lumin DLD1 mean pIC50 (converted).
Where [2] appears, read: DLD-1, DLD-1 BRCA2 −/−, mean, read-out: POLQ PD Prolif Lumin BRCA2 −/− mean pIC50 (converted).
Where [3] appears, read: DLD-1, 168 h, DLD-1 (BRCA2 wt control), 7 days, Cell Titre Glo 3D, read-out: POLQ PD Prolif Lumin DLD1 Mean pIC50 (converted).
Setting [4] is: DLD-1, 288 h, DLD-1 BRCA2−/−, 12 days, Cell Titre Glo 3D, read-out: POLQ PD Prolif Lumin BRCA2 −/− Mean pIC50 (converted).
Where [5] appears, read: DLD-1, second proliferation column (c6), DLD-1 BRCA2 wt control, read-out: POLQ PD Prolif Lumin (converted).
The mark [6] stands for this setting: DLD-1, first proliferation column (c5), DLD-1 BRCA2-/-, read-out: POLQ PD Prolif Lumin (converted).
Setting [7] is: DLD-1, second proliferation column (c6), taken as DLD-1 BRCA2 wt, read-out: POLQ PD Prolif Lumin (converted).
Setting [8] is: DLD-1, first proliferation column (c5), taken as DLD-1 BRCA2-/-, read-out: POLQ PD Prolif Lumin (converted).
Setting [9] is: DLD-1, 168 h, DLD-1 BRCA2 wt cells, 7 days, read-out: POLQ PD Prolif Lumin DLD1 mean pIC50 (converted).
[10] abbreviates: DLD-1, 288 h, DLD-1 BRCA2−/− cells, 12 days, read-out: POLQ PD Prolif Lumin BRCA2 −/− mean pIC50 (converted).

Turning to `Cc1ccnc(Cn2c(-c3ccc(OCCCN4CC[C@@H](O)C4)cc3Cl)nc3c(OC4(C)CC4)ncnc32)c1` [Example T592, (R)-1-(3-(3-chloro-4-(6-(1-methylcyclopropoxy)-9-((4-methylpyridin-2-yl)methyl)-9H-purin-8-yl)phenoxy)propyl)pyrrolidin-3-ol], the IC50 is more than 10000 nM with DLD-1 cells (DLD-1, second proliferation column, DLD-1 BRCA2 wt control, read-out: POLQ PD Prolif Lumin (converted)) and 200 nM in the assay on DLD-1 BRCA2−/− cells (DLD-1, first proliferation column, DLD-1 BRCA2-/-, read-out: POLQ PD Prolif Lumin (converted)).
On to `COc1ccc(C(F)(F)F)cc1Cn1c(-c2ccc(OCC[C@H](C)C(=O)O)cc2Cl)nc2c(OC3(C)CC3)ncnc21` [Example U76, (S)-4-(3-chloro-4-(9-(2-methoxy-5-(trifluoromethyl)benzyl)-6-(1-methylcyclopropoxy)-9H-purin-8-yl)phenoxy)-2-methylbutanoic acid], for which the IC50 in the assay on DLD-1 cells (setting [1]) was more than 10000 nM; in the assay with DLD-1 BRCA2−/− cells (setting [2]), 200 nM.
As to `Cc1ccnc(Cn2c(-c3ccc(CC(=O)N4C[C@@H](O)[C@H](F)C4)cc3Cl)nc3c(OC4(C)CC4)ncnc32)c1` [Example T422, 2-(3-chloro-4-(6-(1-methylcyclopropoxy)-9-((4-methylpyridin-2-yl)methyl)-9H-purin-8-yl)phenyl)-1-((3R,4R)-3-fluoro-4-hydroxypyrrolidin-1-yl)ethan-1-one], the IC50 in the assay with DLD-1 cells (DLD-1, proliferation, luminescence, second Prolif column (c6), taken as DLD-1 BRCA2 wt control, read-out: POLQ PD Prolif Lumin (converted)) was more than 10000 nM; in the assay with DLD-1 BRCA2−/− cells (DLD-1, proliferation, luminescence, taken as DLD-1 BRCA2-/-, read-out: POLQ PD Prolif Lumin (converted)), 1000 nM.
`COc1ccc(Cl)cc1Cn1c(-c2cccc(OC[C@@H](C)CC(=O)O)c2Cl)nc2c(OC3(C)CC3)ncnc21` (single isomer, unassigned; isomer 1) [Example 50, 4-(2-Chloro-3-(9-(5-chloro-2-methoxybenzyl)-6-(1-methylcyclopropoxy)-9H-purin-8-yl)phenoxy)-3-methylbutanoic acid (isomer 1)]: the figures for the IC50 in the assay on DLD-1 cells (setting [3]) and in the assay with DLD-1 BRCA2−/− cells (setting [4]) were more than 10000 nM and 6.31 nM, respectively.
Turning to `Cc1cnc(Cn2c(-c3ccc(O[C@H]4CCN(C)C4)cc3Cl)nc3c(OC4(C)CC4)ncnc32)s1` [Example T140, (S)-2-((8-(2-chloro-4-((1-methylpyrrolidin-3-yl)oxy)phenyl)-6-(1-methylcyclopropoxy)-9H-purin-9-yl)methyl)-5-methylthiazole], the results for the IC50 with DLD-1 cells (setting [5]) and with DLD-1 BRCA2−/− cells (setting [6]) were more than 10000 nM and 251 nM, respectively.
Turning to `Cc1ccnc(Cn2c(-c3ccc(OCCO)cc3Cl)nc3c(OC4(C)CC4)ncnc32)c1` [Example 33, 2-(3-Chloro-4-(6-(1-methylcyclopropoxy)-9-((4-methylpyridin-2-yl)methyl)-9H-purin-8-yl)phenoxy)ethan-1-ol], the IC50 was more than 10000 nM in the assay on DLD-1 cells (setting [3]) and 126 nM in the assay on DLD-1 BRCA2−/− cells (setting [4]).
Turning to `Cc1ccnc(Cn2c(-c3ccc(OCCC(C)(C)O)cc3Cl)nc3c(OC4(C)CC4)ncnc32)c1` [Example T382, 4-(3-chloro-4-(6-(1-methylcyclopropoxy)-9-((4-methylpyridin-2-yl)methyl)-9H-purin-8-yl)phenoxy)-2-methylbutan-2-ol], the IC50 was more than 10000 nM in the assay with DLD-1 cells (setting [7]) and 100 nM in the assay with DLD-1 BRCA2−/− cells (setting [8]).
Take `Cc1ccnc(Cn2c(-c3ccc(OC4CNC(=O)C4)cc3Cl)nc3c(OC4(C)CC4)ncnc32)c1` (racemic) [Example T179, 4-(3-chloro-4-(6-(1-methylcyclopropoxy)-9-((4-methylpyridin-2-yl)methyl)-9H-purin-8-yl)phenoxy)pyrrolidin-2-one]: the IC50 is more than 10000 nM in the assay with DLD-1 cells (setting [5]) and 316 nM in the assay with DLD-1 BRCA2−/− cells (setting [6]).
For `Cc1cc(Cl)nc(Cn2c(-c3ccc(OCCN4CCNCC4)cc3Cl)nc3c(OC4(C)CC4)ncnc32)c1` [Example T524, 8-(2-chloro-4-(2-(piperazin-1-yl)ethoxy)phenyl)-9-((6-chloro-4-methylpyridin-2-yl)methyl)-6-(1-methylcyclopropoxy)-9H-purine], the IC50 with DLD-1 cells (setting [5]) was more than 10000 nM; in the assay on DLD-1 BRCA2−/− cells (setting [6]), 501 nM.
As to `COc1cccnc1Cn1c(-c2ccc(OCCN3CCNCC3)cc2Cl)nc2c(OC3(C)CC3)ncnc21` [Example L10, 8-(2-chloro-4-(2-(piperazin-1-yl)ethoxy)phenyl)-9-((3-methoxypyridin-2-yl)methyl)-6-(1-methylcyclopropoxy)-9H-purine], the values for the IC50 with DLD-1 cells (setting [9]) and in the assay with DLD-1 BRCA2−/− cells (setting [10]) were more than 10000 nM and 3160 nM, respectively.
Turning to `CC1(Oc2ccnc3c2nc(-c2ccc(OCCN4CCNCC4)cc2Cl)n3Cc2ccccn2)CCC1` [Example P3, 2-(2-chloro-4-(2-(piperazin-1-yl)ethoxy)phenyl)-7-(1-methylcyclobutoxy)-3-(pyridin-2-ylmethyl)-3H-imidazo[4,5-b]pyridine], the IC50 was more than 10000 nM with DLD-1 cells (setting [9]) and 2000 nM with DLD-1 BRCA2−/− cells (setting [10]).
`COc1ccc(Cl)cc1Cn1c(-c2cccc(CCCC(=O)O)c2Cl)nc2c(OC3(C)CC3)ncnc21` [Example U62, 4-(2-chloro-3-(9-(5-chloro-2-methoxybenzyl)-6-(1-methylcyclopropoxy)-9H-purin-8-yl)phenyl)butanoic acid]: the IC50 was more than 10000 nM in the assay on DLD-1 cells (setting [1]) and 50.1 nM in the assay on DLD-1 BRCA2−/− cells (setting [2]).
With `Cc1cnc(Cn2c(-c3cccc(OCCN(C)C)c3Cl)nc3c(OC4(C)CC4)ncnc32)s1` [Example T73, 2-(2-chloro-3-(6-(1-methylcyclopropoxy)-9-((5-methylthiazol-2-yl)methyl)-9H-purin-8-yl)phenoxy)-N,N-dimethylethan-1-amine], the IC50 in the assay with DLD-1 cells (DLD-1, DLD1 BRCA2 wt cells, mean, read-out: POLQ PD Prolif Lumin DLD1 mean PIC50 (converted)) was more than 10000 nM; in the assay with DLD-1 BRCA2−/− cells (DLD-1, DLD-1 BRCA2 −/− cells, mean, read-out: POLQ PD Prolif Lumin BRCA2 −/− mean pIC50 (converted)) it was 631 nM.
Consider `COc1ccc(F)cc1Cn1c(-c2ccc(OCC[C@H](C)C(=O)O)cc2Cl)nc2c(OC3(C)CC3)ncnc21` [Example U68, (S)-4-(3-chloro-4-(9-(5-fluoro-2-methoxybenzyl)-6-(1-methylcyclopropoxy)-9H-purin-8-yl)phenoxy)-2-methylbutanoic acid], for which the IC50 was more than 10000 nM with DLD-1 cells (setting [1]) and 39.8 nM with DLD-1 BRCA2−/− cells (setting [2]).
On to `CC1(Oc2ncnc3c2nc(-c2ccc(N4CCC(N)CC4)cc2Cl)n3Cc2ccccc2)CC1` [Example M2, 1-(4-(9-benzyl-6-(1-methylcyclopropoxy)-9H-purin-8-yl)-3-chlorophenyl)piperidin-4-amine], for which the IC50 in the assay on DLD-1 cells (setting [9]) was 5010 nM; in the assay with DLD-1 BRCA2−/− cells (setting [10]) it was 316 nM.
`CN1CCN(CCOc2cccc(-c3nc4c(OC5(C)CC5)ncnc4n3Cc3ccccc3)c2Cl)CC1` [Example D12, 9-benzyl-8-(2-chloro-3-(2-(4-methylpiperazin-1-yl)ethoxy)phenyl)-6-(1-methylcyclopropoxy)-9H-purine]: the IC50 in the assay with DLD-1 cells (setting [9]) is 5010 nM; with DLD-1 BRCA2−/− cells (setting [10]) it was 50.1 nM.
On to `CC1(Oc2ncnc3c2nc(-c2ccc(N4CC(N)C4)cc2Cl)n3Cc2ccccc2)CC1` [Example M1, 1-(4-(9-benzyl-6-(1-methylcyclopropoxy)-9H-purin-8-yl)-3-chlorophenyl)azetidin-3-amine], for which the results for the IC50 in the assay with DLD-1 cells (setting [9]) and with DLD-1 BRCA2−/− cells (setting [10]) were more than 10000 nM and 501 nM, respectively.
For the compound `CN1CCN(CCOc2ccc(-c3nc4c(OC5(C)CC5)ncnc4n3Cc3ccccc3)c(CO)c2)CC1` [Example H10, (2-(9-benzyl-6-(1-methylcyclopropoxy)-9H-purin-8-yl)-5-(2-(4-methylpiperazin-1-yl)ethoxy)phenyl)methanol], the figures for the IC50 in the assay with DLD-1 cells (setting [9]) and in the assay with DLD-1 BRCA2−/− cells (setting [10]) were more than 10000 nM and 794 nM, respectively.
For `Cc1ccnc(Cn2c(-c3ccc(CC(=O)N4CC5CC(C4)N5)cc3Cl)nc3c(OC4(C)CC4)ncnc32)c1` [Example T555, 1-(3,6-diazabicyclo[3.1.1]heptan-3-yl)-2-(3-chloro-4-(6-(1-methylcyclopropoxy)-9-((4-methylpyridin-2-yl)methyl)-9H-purin-8-yl)phenyl)ethan-1-one], the IC50 is more than 10000 nM in the assay with DLD-1 cells (setting [5]) and more than 7940 nM in the assay on DLD-1 BRCA2−/− cells (setting [6]).
Consider `Cc1ccnc(Cn2c(-c3ccc(CC(=O)NC[C@H](C)O)cc3Cl)nc3c(OC4(C)CC4)ncnc32)c1` [Example T371, (S)-2-(3-chloro-4-(6-(1-methylcyclopropoxy)-9-((4-methylpyridin-2-yl)methyl)-9H-purin-8-yl)phenyl)-N-(2-hydroxypropyl)acetamide], for which the IC50 in the assay with DLD-1 cells (setting [7]) is more than 10000 nM; in the assay on DLD-1 BRCA2−/− cells (setting [8]), 1000 nM.
As to `CC1(Oc2ncnc3c2nc(-c2ccc(OCCN4CCNC(=O)C4)cc2Cl)n3Cc2ccccc2)CC1` [Example D15, 4-(2-(4-(9-benzyl-6-(1-methylcyclopropoxy)-9H-purin-8-yl)-3-chlorophenoxy)ethyl)piperazin-2-one], the IC50 was more than 10000 nM in the assay with DLD-1 cells (setting [9]) and 79.4 nM in the assay on DLD-1 BRCA2−/− cells (setting [10]).
